In US8481551B2, “Gyrase and topoisomerase IV inhibitors” (Vertex Pharmaceuticals Incorporated, priority 2011, dated 2013):
Counter-ions that a name gives are not always drawn.

Assays:
[1] = tested on: β-haemolytic streptococci (Groups A, B, C and G); assay: Gyrase MIC, microdilution broth method (Protocol 1); type: cell-based; details: 28 isolates tested
[2] = Oral range finding toxicity and toxicokinetic study in male cynomolgus monkeys; type: in vivo, Cynomolgus monkeys (Macaca Fascicularis)
Description: Cynomolgus monkeys (Macaca Fascicularis) were obtained from Primus Bio-Resources Inc. of PinCourt, Quebec, Canada. Cynomolgus monkeys were chosen because they are a non-rodent species that is commonly used for nonclinical toxicity evaluations.
Eight (2 naive and 6 non-naïve) males were used in the study. The animals were young adults and weighed between 2 to 4 kg at the onset of dosing.
The first day of dosing was designated as Day 1 of the study. The actual volume administered to each animal was calculated and adjusted based on the most recent body weight of each animal.
Cage-side clinical signs (ill health, behavioral changes etc.) were recorded at least once daily during the study.
Body weights were recorded for all animals prior to group assignment and on Days 1 (prior to dosing), 3 and 7 as well as terminally prior to necropsy (fasted).
Electrocardiograms (bipolar limb leads I, II and III, and augmented unipolar leads aVR, aVL and aVF) were obtained for all monkeys once during the pre-treatment period and again on Day 7 (post-dosing).
The tracings were assessed for gross changes indicative of cardiac electrical dysfunction. The potential presence of abnormalities involving heart rate (lead II), sinus and atrioventricular rhythm or conductivity were determined. Heart rate, PR interval, QRS duration, QT and QTc intervals values were measured.
A series of 7 blood samples (approximately 0.5 mL each) were collected from each monkey on Days 1 and 7 at the following time points: predose, 30 minutes and 2, 3, 6, 12 and 24 hours post-dose. […] Tubes were placed on wet ice until ready for processing. […]
The following parameters were measured on blood samples collected into EDTA anticoagulant: red blood cell count, mean corpuscular hemoglobin (calculated), hematocrit (calculated), mean corpuscular volume, hemoglobin, morphology of cells, white blood cell count, platelet count, white blood cell differential (absolute), reticulocyte (absolute and percentage) and mean corpuscular hemoglobin concentration (calculated).
Activated partial thromboplastin time and prothrombin time were measured on blood samples collected into citrate anticoagulant.
The following parameters were measured on blood samples collected into tubes containing clotting activator: a/g ratio (calculated), creatinine, alanine aminotransferase, globulin (calculated), albumin, glucose, alkaline phosphatase, phosphorus (inorganic), aspartate aminotransferase, potassium, bilirubin (total), sodium, calcium, total protein, chloride, triglycerides, cholesterol (total), urea, gamma glutamyltransferase and sorbitol dehydrogenase.
The following parameters were measured on urine samples: bilirubin, protein, blood, sediment microscopy, color and appearance, specific gravity, glucose, urobilinogen, ketones, volume and pH. […]

[3] = tested on: Stenotrophomonas maltophilia; assay: Gyrase MIC against Gram negatives, microdilution broth method (Protocol 2); type: cell-based

SMILES: CCNC(=O)Nc1nc2cc(-c3cnc(C(C)(C)O)nc3)cc([C@H]3CCCO3)c2[nH]1 [Compound 13, methanesulfonic acid salt of 1-ethyl-3-[5-[2-(1-hydroxy-1-methyl-ethyl)pyrimidin-5-yl]-7-[(2R)-tetrahydrofuran-2-yl]-1H-benzimidazol-2-yl]urea]
- MIC90 [1]: 0.25 µg/mL
- MIC Range [1]: 0.06 to 0.5 µg/mL

SMILES: CCNC(=O)Nc1nc2cc(-c3cnc(C(C)(C)O)nc3)c(F)c([C@H]3CCCO3)c2[nH]1 [Compound 23, 1-ethyl-3-[6-fluoro-5-[2-(1-hydroxy-1-methyl-ethyl)pyrimidin-5-yl]-7-[(2R)-tetrahydrofuran-2-yl]-1H-benzimidazol-2-yl]urea]
- clinical signs, body weights, electrocardiography, clinical pathology, organ weights ([2]; doses up to 200 mg/kg/day): no clinical signs, or changes in body weights, electrocardiography parameters, clinical pathology parameters, or organ weights
- macroscopic or microscopic findings ([2]; doses up to 200 mg/kg/day): no macroscopic or microscopic findings
- no observed effect level (NOEL) ([2]; male Cynomolgus monkeys, oral gavage once per day for 7 days): 200 mg/kg/day
- exposures for different dosage levels ([2]; male Cynomolgus monkeys, toxicokinetics): dose related

SMILES: CCNC(=O)Nc1nc2cc(-c3cnc(C(C)(C)O)nc3)c(F)c([C@H]3CCCO3)c2[nH]1 [Compound 23A, methanesulfonic acid salt of 1-ethyl-3-[6-fluoro-5-[2-(1-hydroxy-1-methyl-ethyl)pyrimidin-5-yl]-7-[(2R)-tetrahydrofuran-2-yl]-1H-benzimidazol-2-yl]urea]
- MIC ([3]; ATCCBAA84, Stenotrophomonas maltophilia ATCC BAA-84): > 8 µg/mL
- MIC ([3]; Stenotrophomonas maltophilia ATCC13637): > 8 µg/mL
